Reference: US11560370B1, “5-membered heteroaryl carboxamide compounds for treatment of HBV” (Assembly Biosciences, Inc., priority 2018, dated 2023)

tested on: HBV; assay: Viral production from HepAD38 cells, viral load by qPCR of HBV core sequence; assay type: cell-based; details: 5 days, supernatant HBV DNA by qPCR, read-out: Viral Load EC50 Activity range
Procedure: Assay Measuring Activity of Test Compounds on Viral Production from HepAD38 Cells
HepAD38 cells grown in a T-150 flask (Corning, cat #: 430825) with Growth Medium (DMEM/F12 (1:1) (Hyclone, cat #: SH30023.02), 1× Pen/Strep (Invitrogen, cat #: 15140-122), 10% FBS (Tissue Culture Biologics, cat #: 101), 250 μg/mL G418 (Alfa Aesar, cat #: J62671), 1 μg/mL Tetracycline (Teknova, cat #: T3320)) were detached with 0.25% trypsin-EDTA to (Invitrogen, cat #: 25200-056). Tetracycline-free treatment medium (15 mL DMEM/F12 (1:1) 1× Pen/step, with 2% FBS, Tet-system approved (Clontech, cat #: 631106) were then added to mix, transferred into a 50 ml conical tube (Falcon, cat #: 21008-918,) and spun at 1300 rpm for 5 min. Pelleted cells were then re-suspended/washed with 50 mL of 1×DPBS (Invitrogen, cat #: 14190-136) 2 times and 50 mL treatment medium twice. HepAD38 cells were then re-suspended with 10 mL of treatment medium, syringed and counted. Wells of 96-well clear bottom TC plate (Corning, cat #: 3904,) were seeded at 50,000 cells/well in 180 μL of treatment medium, and 20 μL of either 10% DMSO (Sigma, cat #: D4540) as controls or a 10× solution of test compounds in 10% DMSO in treatment media was added for a final compound concentration starting at 10 μM, and plates were incubated in 5% CO2 incubator at 37° C. for 5 days.
Subsequently viral load production was assayed by quantitative PCR (qPCR) of the HBV core sequence. PCR reaction mixture containing forward primers HBV-f 5′-CTGTGCCTTGGGTGGCTTT-3′ (IDT DNA), Reverse primers HBV-r 5′-[…]-3′ (IDT DNA), Fluorescent TaqMan™ Probes HBV-probe 5′-FAM/AGCTCCAAA/ZEN/[…]/3IABkFQ-3′ (IDT DNA), 10 μL/well of PerfeCTa® qPCR ToughMix® (Quanta Biosciences, Cat #: 95114-05K), and 6 μL/well of DEPC water (Alfa Aesar, cat #: J62087) was prepared. […] of supernatant was added to 16 μL of the reaction mixture in a qPCR plate (Applied Biosytems, Cat #: 4309849), sealed with a film (Applied Biosystems, Cat #: 4311971), centrifuged for a few seconds, and subsequently run on an Applied Biosystems VIIA7. The PCR mixture was incubated at 45° C. for 5 min, then 95° C. for 10 min, followed by 40 cycles of 10 seconds at 95° C. and 20 seconds at 60° C. Viral load was quantified against known HBV DNA standards by using ViiA™ 7 Software. Viral load in the supernatant from wells with treated cells were compared against viral load in supernatant from DMSO control wells (>3 per plate). Cell viability assay was performed with CellTiter-Glo Luminescent Cell Viability Assay (Promega, cat #: G7573) with modification. Mixed appropriate amount of CellTiter-Glo (CTG) 1×DPBS in a 1:1 ratio, added 100 uL of the mixture to each well followed completely removal of all supernatant in each well without touching cell surface. Incubated the plate at room temperature for 10 min on an orbital shaker, and then read the plate with a plate reader (TECAN M1000 or Envision). EC50 or CC50 values were calculated through curve-fitting of the four-parameter nonlinear-logistic-regression model (GraphPad Prism or Dotmatics). CC50 values were all >10 μM.

| SMILES | EC50 [µM] |
| --- | --- |
| Cn1nc(C2CC3CC(O)(CN4CCCCC4)CC3C2)c(C(=O)Nc2ccc(F)c(Cl)c2)c1N (single isomer, unassigned) [AIA-363-2, 5-Amino-N-(3-chloro-4-fluorophenyl)-3-(5-hydroxy-5-(piperidin-1-ylmethyl)octahydropentalen-2-yl)-1-methyl-1H-pyrazole-4-carboxamide] | 0.1 to 0.5 |
| COc1ccccc1C1CCC(c2nn(C)c(N)c2C(=O)Nc2ccc(F)c(Cl)c2)C1 (single isomer, unassigned) [AIA-275B, 5-Amino-N-(3-chloro-4-fluorophenyl)-3-(3-(2-methoxyphenyl)cyclopentyl)-1-methyl-1H-pyrazole-4-carboxamide] | 0.1 to 0.5 |
| Cn1nc(C2CCC(c3ccccc3)C2)c(C(=O)Nc2ccc(F)c(Cl)c2)c1N (single isomer, unassigned) [AIA-202B, 5-Amino-N-(3-chloro-4-fluorophenyl)-1-methyl-3-(3-phenylcyclopentyl)-1H-pyrazole-4-carboxamide] | < 0.1 |
| Cn1nc(C2CC3CNCC3C2)c(C(=O)Nc2ccc(F)c(Cl)c2)c1N (stereo not drawn) [AIA-006] | 0.5 to 10 |
| Cn1cc(C2CCC(c3nn(C)c(N)c3C(=O)Nc3ccc(F)c(Cl)c3)C2)cn1 (single isomer, unassigned) [AIA-004-A, 5-Amino-N-(3-chloro-4-fluorophenyl)-1-methyl-3-(3-(1-methyl-1H-pyrazol-4-yl)cyclopentyl)-1H-pyrazole-4-carboxamide] | < 0.1 |
| Cn1nc(C2CC3CNC(=O)CC3C2)c(C(=O)Nc2ccc(F)c(Cl)c2)c1N (stereo not drawn) [AIA-033] | < 0.1 |
| CCOC(=O)C=C1CC2CC(c3nn(C)c(N)c3C(=O)Nc3ccc(F)c(Cl)c3)CC2C1 (stereo not drawn) [AIA-017] | < 0.1 |
| Cn1nc(C2CC3CC(O)(C(=O)NC4CC4)CC3C2)c(C(=O)Nc2ccc(F)c(Cl)c2)c1N (stereo not drawn) [AIA-274-2, 5-Amino-N-(3-chloro-4-fluorophenyl)-3-(5-(cyclopropylcarbamoyl)-5-hydroxyoctahydropentalen-2-yl)-1-methyl-1H-pyrazole-4-carboxamide] | < 0.1 |
| Cn1nc([C@@H]2CC3CC(O)(CS(C)(=O)=O)C[C@@H]3C2)c(C(=O)Nc2ccc(F)c(Cl)c2)c1N (stereo partly drawn) [AIA-227-1, 5-Amino-N-(3-chloro-4-fluorophenyl)-3-((2r,5r)-5-hydroxy-5-(methylsulfonylmethyl)octahydropentalen-2-yl)-1-methyl-1H-pyrazole-4-carboxamide] | < 0.1 |

same assay, conditions: Hepatitis B virus, HePAD38, 120 h, 5 days, supernatant HBV DNA by qPCR, read-out: Viral Load EC50 Activity range

| SMILES | EC50 [µM] |
| --- | --- |
| CCC1OCC2(CC3CC(c4nn(C)c(N)c4C(=O)Nc4ccc(F)c(Cl)c4)CC3C2)O1 (single isomer, unassigned) [AIA-255-3, 5-Amino-N-(3-chloro-4-fluorophenyl)-3-(2′-ethylhexahydro-1H-spiro[pentalene-2,4′-[1,3]dioxolan]-5-yl)-1-methyl-1H-pyrazole-4-carboxamide] | < 0.1 |
| COc1cc(-c2c[nH]cn2)ccc1C1CCC(c2nn(C)c(N)c2C(=O)Nc2ccc(F)c(Cl)c2)C1 (stereo not drawn) [AIA-366-1, 3-(3-(4-(1H-Imidazol-4-yl)-2-methoxyphenyl)cyclopentyl)-5-amino-N-(3-chloro-4-fluorophenyl)-1-methyl-1H-pyrazole-4-carboxamide] | 0.1 to 0.5 |
| Cn1nc(C2CC3CC(O)(CSCCO)CC3C2)c(C(=O)Nc2ccc(F)c(Cl)c2)c1N (single isomer, unassigned) [AIA-283-1, 5-Amino-N-(3-chloro-4-fluorophenyl)-3-(5-hydroxy-5-(((2-hydroxyethyl)thio)methyl)octahydropentalen-2-yl)-1-methyl-1H-pyrazole-4-carboxamide] | < 0.1 |
| Cn1nc(C2CC3CC(C)(O)CC3C2)c(C(=O)Nc2ccc(F)c(Cl)c2)c1N (stereo not drawn) [AIA-011, 5-Amino-N-(3-chloro-4-fluorophenyl)-3-(5-hydroxy-5-methyloctahydropentalen-2-yl)-1-methyl-1H-pyrazole-4-carboxamide] | < 0.1 |
| Cn1nc(C2CC3CC(O)(CSCC(F)(F)F)CC3C2)c(C(=O)Nc2ccc(F)c(Cl)c2)c1N (stereo not drawn) [AIA-258-1, 5-Amino-N-(3-chloro-4-fluorophenyl)-3-(5-hydroxy-5-(((2,2,2-trifluoroethyl)thio)methyl)octahydropentalen-2-yl)-1-methyl-1H-pyrazole-4-carboxamide] | < 0.1 |
| CC[S+]([O-])C1CC2CC(c3nn(C)c(N)c3C(=O)Nc3ccc(F)c(Cl)c3)CC2C1 (stereo not drawn) [AIA-075, 5-Amino-N-(3-chloro-4-fluorophenyl)-3-(5-(ethylsulfinyl)octahydropentalen-2-yl)-1-methyl-1H-pyrazole-4-carboxamide] | < 0.1 |
| Cn1nc(C2CC3CC(n4cccn4)CC3C2)c(C(=O)Nc2ccc(F)c(Cl)c2)c1N (stereo not drawn) [AIA-048, 3-(5-(1H-Pyrazol-1-yl)octahydropentalen-2-yl)-5-amino-N-(3-chloro-4-fluorophenyl)-1-methyl-1H-pyrazole-4-carboxamide] | < 0.1 |
| Cn1nc(C2CC3CC(N4CCOCC4)CC3C2)c(C(=O)Nc2ccc(F)c(Cl)c2)c1N (stereo not drawn) [AIA-041, 5-Amino-N-(3-chloro-4-fluorophenyl)-1-methyl-3-(5-morpholinooctahydropentalen-2-yl)-1H-pyrazole-4-carboxamide] | < 0.1 |
| COc1cc(-c2cnn(C)c2)ccc1C1CCC(c2nn(C)c(N)c2C(=O)Nc2ccc(F)c(Cl)c2)C1 (stereo not drawn) [AIA-369, 5-Amino-N-(3-chloro-4-fluorophenyl)-3-(3-(2-methoxy-4-(1-methyl-1H-pyrazol-4-yl)phenyl)cyclopentyl)-1-methyl-1H-pyrazole-4-carboxamide] | 0.1 to 0.5 |
| Cn1cc(-c2ccc([C@H]3CC[C@H](c4nn(C)c(N)c4C(=O)Nc4ccc(F)c(Cl)c4)C3)cc2)cn1 [AIA-050-B, 5-amino-N-(3-chloro-4-fluorophenyl)-1-methyl-3-((1S,3S)-3-(4-(1-methyl-1H-pyrazol-4-yl)phenyl)cyclopentyl)-1H-pyrazole-4-carboxamide] | < 0.1 |
| COc1cc(-c2cn(C)cn2)ccc1C1CCC(c2nn(C)c(N)c2C(=O)Nc2ccc(F)c(Cl)c2)C1 (stereo not drawn) [AIA-365-1, 5-Amino-N-(3-chloro-4-fluorophenyl)-3-(3-(2-methoxy-4-(1-methyl-1H-imidazol-4-yl)phenyl)cyclopentyl)-1-methyl-1H-pyrazole-4-carboxamide] | 0.1 to 0.5 |
| COc1cc(-c2nccn2C)ccc1C1CCC(c2nn(C)c(N)c2C(=O)Nc2ccc(F)c(Cl)c2)C1 (single isomer, unassigned) [AIA-367-1, 5-Amino-N-(3-chloro-4-fluorophenyl)-3-(3-(2-methoxy-4-(1-methyl-1H-imidazol-2-yl)phenyl)cyclopentyl)-1-methyl-1H-pyrazole-4-carboxamide] | 0.1 to 0.5 |
| CNC(=O)N1CC2CC(c3nn(C)c(N)c3C(=O)Nc3ccc(F)c(Cl)c3)CC2C1 (stereo not drawn) [AIA-023, 5-(5-Amino-4-(3-chloro-4-fluorophenylcarbamoyl)-1-methyl-1H-pyrazol-3-yl)-N-methylhexahydrocyclopenta[c]pyrrole-2(1H)-carboxamide] | < 0.1 |
| CN(C)c1ccc(C2CCC(c3nn(C)c(N)c3C(=O)Nc3ccc(F)c(Cl)c3)C2)cc1 (stereo not drawn) [AIA-293, 5-Amino-N-(3-chloro-4-fluorophenyl)-3-(3-(4-(dimethylamino)phenyl)cyclopentyl)-1-methyl-1H-pyrazole-4-carboxamide] | < 0.1 |
| COc1cc(C(=O)NCCN)ccc1C1CCC(c2nn(C)c(N)c2C(=O)Nc2ccc(F)c(Cl)c2)C1 (stereo not drawn) [AIA-388, 5-Amino-3-(3-(4-((2-aminoethyl)carbamoyl)-2-methoxyphenyl)cyclopentyl)-N-(3-chloro-4-fluorophenyl)-1-methyl-1H-pyrazole-4-carboxamide] | 0.1 to 0.5 |
